Laboratory results taken from patent US10695337B2, “Piperidin-4-yl azetidine derivatives as JAK1 inhibitors” (Incyte Corporation, priority 2010, dated 2020).

Target: human JAK1 (a.a. 837-1142)
Assay: In vitro JAK kinase assay (HTRF, phosphorylation of a biotinylated peptide), JAK1
Assay type: biochemical
Conditions: measured at 1 mM ATP; JAK2 IC50 / JAK1 IC50
Summary of the method: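 N-terminal His-tagged catalytic domains, baculovirus-expressed in insect cells, phosphorylated a biotinylated peptide for 1 hr at room temperature. EDTA stop was followed by SA-APC and Eu-Py20 antibody for 40 minutes, with phosphopeptide read by HTRF.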

SMILES | IC50 Ratio JAK2/JAK1
N#CCC1(n2cc(-c3ncnc4[nH]ccc34)cn2)CN(C2CCN(C(=O)c3ccc(-c4nc5ccccc5o4)c(F)c3)CC2)C1 [Example 137, {1-{1-[4-(1,3-benzoxazol-2-yl)-3-fluorobenzoyl]piperidin-4-yl}-3-[4-(7H-pyrrolo[2,3-d]pyrimidin-4-yl)-1H-pyrazol-1-yl]azetidin-3-yl} acetonitrile] | 6.0
N#CCC1(n2cc(-c3ncnc4[nH]ccc34)cn2)CN(C2CC3CCC(C2)N3C(=O)c2ccc(F)c(F)c2)C1 (stereo not shown) [Example 139, {1-[8-(3,4-difluorobenzoyl)-8-azabicyclo[3.2.1]oct-3-yl]-3-[4-(7H-pyrrolo[2,3-d]pyrimidin-4-yl)-1H-pyrazol-1-yl]azetidin-3-yl}acetonitrile] | 4.4
N#CCC1(n2cc(-c3ncnc4[nH]ccc34)cn2)CN(C2CC3CCC(C2)N3C(=O)c2ccc(C#N)c(F)c2)C1 (stereo not shown) [Example 140, 4-[(3-{3-(cyanomethyl)-3-[4-(7H-pyrrolo[2,3-d]pyrimidin-4-yl)-1H-pyrazol-1-yl]azetidin-1-yl}-8-azabicyclo[3.2.1]oct-8-yl)carbonyl]-2-fluorobenzonitrile] | 5.4
N#CCC1(n2cc(-c3ncnc4[nH]ccc34)cn2)CN(C2CC3CCC(C2)N3C(=O)c2ccc(Cl)c(F)c2)C1 (stereo not shown) [Example 141, {1-[8-(4-chloro-3-fluorobenzoyl)-8-azabicyclo[3.2.1]oct-3-yl]-3-[4-(7H-pyrrolo[2,3-d]pyrimidin-4-yl)-1H-pyrazol-1-yl]azetidin-3-yl}acetonitrile] | 6.2
N#CCC1(n2cc(-c3ncnc4[nH]ccc34)cn2)CN(C2CC3CCC(C2)N3C(=O)c2ccnc(C(F)(F)F)c2F)C1 (stereo not shown) [Example 142, {1-{8-[3-fluoro-2-(trifluoromethyl)isonicotinoyl]-8-azabicyclo[3.2.1]oct-3-yl}-3-[4-(7H-pyrrolo[2,3-d]pyrimidin-4-yl)-1H-pyrazol-1-yl]azetidin-3-yl}acetonitrile] | 7.4
N#CCC1(n2cc(-c3ncnc4[nH]ccc34)cn2)CN(C2CC3CCC(C2)N3C(=O)c2ccc(C(F)(F)F)nc2)C1 (stereo not shown) [Example 143, [3-[4-(7H-pyrrolo[2,3-d]pyrimidin-4-yl)-1H-pyrazol-1-yl]-1-(8-{[6-(trifluoromethyl)pyridin-3-yl]carbonyl}-8-azabicyclo[3.2.1]oct-3-yl)azetidin-3-yl]acetonitrile] | 3.5
CC1CC(N2CC(CC#N)(n3cc(-c4ncnc5[nH]ccc45)cn3)C2)CCN1C(=O)C1CCC(F)(F)CC1 (stereo not shown) [Example 151, {1-{1-[(4,4-difluorocyclohexyl)carbonyl]-2-methylpiperidin-4-yl}-3-[4-(7H-pyrrolo[2,3-d]pyrimidin-4-yl)-1H-pyrazol-1-yl]azetidin-3-yl}acetonitrile] | 5.8
CC1(N2CC(CC#N)(n3cc(-c4ncnc5[nH]ccc45)cn3)C2)CCN(C(=O)c2cccc(F)c2)CC1 [Example 152, {1-[1-(3-Fluorobenzoyl)-4-methylpiperidin-4-yl]-3-[4-(7H-pyrrolo[2,3-d]pyrimidin-4-yl)-1H-pyrazol-1-yl]azetidin-3-yl}acetonitrile] | 4.0
N#CCC1(n2cc(-c3ncnc4[nH]ccc34)cn2)CN(C2CCN(C(=O)Nc3ccccc3OC(F)(F)F)CC2)C1 [Example 158, 4-{3-(cyanomethyl)-3-[4-(7H-pyrrolo[2,3-d]pyrimidin-4-yl)-1H-pyrazol-1-yl]azetidin-1-yl}-N-[2-(trifluoromethoxy)phenyl]piperidine-1-carboxamide] | 12.0
N#CCC1(n2cc(-c3ncnc4[nH]ccc34)cn2)CN(C2CCN(C(=O)Nc3cscc3Br)CC2)C1 [Example 159, N-(4-bromo-3-thienyl)-4-{3-(cyanomethyl)-3-[4-(7H-pyrrolo[2,3-d]pyrimidin-4-yl)-1H-pyrazol-1-yl]azetidin-1-yl}piperidine-1-carboxamide] | 15.0
